# Test results from article PMC8875555, “Discovery of Kinase and Carbonic Anhydrase Dual Inhibitors by Machine Learning Classification and Experiments” (Pharmaceuticals, 2022).
# Several values for one entry are separate records, joined by “and”; a condition that tells them apart may be missing. Equal values may be shown once.
# Tests used:
# [1] = target: T1, CA I (Homo sapiens, UniProt P00915); assay: CA enzyme inhibition with 4-nitrophenyl acetate as substrate; type: biochemical; details: converted from IC50 by Cheng-Prusoff; 5 nM enzyme, 1 mM substrate, 0.01% Triton X-100, 37 °C
# T1 sequence (P00915 whole entry): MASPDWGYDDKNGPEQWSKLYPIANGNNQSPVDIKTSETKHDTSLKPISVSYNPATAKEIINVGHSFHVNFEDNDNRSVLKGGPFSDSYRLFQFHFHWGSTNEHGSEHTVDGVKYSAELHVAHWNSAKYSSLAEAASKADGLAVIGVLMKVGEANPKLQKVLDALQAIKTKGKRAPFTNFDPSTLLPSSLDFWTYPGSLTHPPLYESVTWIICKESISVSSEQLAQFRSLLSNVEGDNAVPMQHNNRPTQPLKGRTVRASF
# Description: (§1) All the reagents used for the biochemical experiments for enzyme inhibitions were bought from Cayman (Ann Harbor, MI, USA), Sigma–Aldrich (St. Louis, MO, USA), Sino Biological (Beijing, China), or Tokyo Chemical Industry (Tokyo, Japan). Inhibitory activities of small molecules on CAs were measured using 4-nitrophenyl acetate as a substrate. […] The changes were measured at 96-well microplates using Epoch2 from BioTek (Winooski, VT, USA). The slope in a time-dependent measurement was calculated by linear regression and interpreted as the quantified activity. Each 200 μL reaction solution comprised 5 nM enzyme and 1 mM substrate buffered using phosphate-buffered saline containing 5% dimethyl sulfoxide and 0.01% (w/v) Triton X-100 under the absence or the presence of inhibitor. […] The substrate-only solution was used as a control to consider autohydrolysis of the substrate. The value of IC50 was converted into Ki using the Cheng–Prusoff equation [66].
# [2] = target: T2, CA II (Homo sapiens, UniProt P00918); assay: as above; type: biochemical; details: converted from IC50 by Cheng-Prusoff; 5 nM enzyme, 1 mM substrate, 0.01% Triton X-100, 37 °C
# Description: as §1
# [3] = target: CA IX (Homo sapiens, UniProt Q16790); assay: as above; type: biochemical; details: converted from IC50 by Cheng-Prusoff; 5 nM enzyme, 1 mM substrate, 0.01% Triton X-100, 37 °C
# Description: as §1
# [4] = target: CA XII (Homo sapiens, UniProt O43570); assay: as above; type: biochemical
# CA XII, sequence (O43570 25-354): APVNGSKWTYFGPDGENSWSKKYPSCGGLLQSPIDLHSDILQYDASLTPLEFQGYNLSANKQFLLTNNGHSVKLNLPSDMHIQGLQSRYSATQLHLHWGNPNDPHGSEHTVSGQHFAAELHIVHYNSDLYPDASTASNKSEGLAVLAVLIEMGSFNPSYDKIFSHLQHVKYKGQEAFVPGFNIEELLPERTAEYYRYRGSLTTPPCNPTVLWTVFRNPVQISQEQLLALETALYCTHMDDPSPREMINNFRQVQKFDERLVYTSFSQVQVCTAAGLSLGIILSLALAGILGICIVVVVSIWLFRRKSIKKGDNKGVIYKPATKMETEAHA
# Description: as §1
# [5] = target: T2, CA II; assay: Differential scanning fluorimetry (DSF); type: binding; details: 200 µM inhibitor; for CA II ΔTm: shift from apo CA II
# Description: (§2) The biophysical experiments involved the binding of small molecules to CA I or CA II, which were quantified using the Tm of DSF. The profile was generated by CFX-connect […] (BioRad, Hercules, CA, USA). The solution contained 5× SYPRO® Orange and 0.5 µM recombinant human CA I or CA II in the absence or presence of 200 µM inhibitor. […] The patterns were nonlinearly fitted to the Boltzmann equation to calculate Tm. […] Nonlinear curve fittings for Ki in enzyme assay and Tm in DSF were performed using MATLAB (MathWorks, Natick, MA, USA).
# [6] = tested on: CDK2; parameters: method as in PMID 15974571; details: cited from earlier work
# [7] = target: T1, CA I; assay: Differential scanning fluorimetry (DSF); type: binding; details: 200 µM inhibitor; for CA I ΔTm: shift from apo CA I
# Description: as §2
# [8] = tested on: SYK; parameters: method as in PMID 12941345; details: cited from earlier work
# [9] = tested on: MST1; parameters: method as in PMID 27535619; details: cited from earlier work
# [10] = tested on: MST2; parameters: method as in PMID 27535619; details: cited from earlier work
Structure (SMILES),Ki [1],Ki [2],Ki [3],Ki [4],CA II ΔTm [5],IC50 [6],CA I ΔTm [7],IC50 [8],"weaker in inhibiting CA XII ([4]; compared with CA I, CA II and CA IX)","CA I Tm ([7]; 0.5 µM CA I, enzyme alone 56.2 ± 0.1)","CA II Tm ([5]; 0.5 µM CA II, enzyme alone 52.6 ± 0.2)",IC50 [9],IC50 [10]
"Nc1nc(Nc2ccc(S(N)(=O)=O)cc2)nn1C(=S)Nc1c(F)cccc1F [Compound 5946, CDK1/2 inhibitor III]",258 ± 58 nM,149 ± 21 nM,100 ± 28 nM,254 ± 40 nM,3.2 degrees,0.5 nM,–,–,–,–,–,–,–
"Nc1nc(Nc2ccc(S(N)(=O)=O)cc2)nn1C(=O)c1c(F)cccc1F [Compound 5932, JNJ-7706621]",207 ± 66 nM,[…],220 ± 32 nM,[…],[…],[…],[…],–,–,–,–,–,–
"Cc1ccc(Nc2nccc(N(C)c3ccc4c(C)n(C)nc4c3)n2)cc1S(N)(=O)=O [Compound 5698, pazopanib]",67 ± 10 nM,242 ± 32 nM,1700 ± 500 nM,800 ± 300 nM,–,–,–,–,–,–,–,–,–
Cn1cc(/C=C2\C(=O)Nc3ccc(S(N)(=O)=O)cc32)c2ccccc21 [Compound 6046],60000 ± 9000 nM,16000 ± 5000 nM,2700 ± 300 nM,13000 ± 4000 nM,0.2 degrees,–,0.1 degrees,[…],–,–,–,–,–
CN1C(=O)c2sccc2N(C)c2nc(Nc3ccc(S(N)(=O)=O)cc3)ncc21 [XMU-MP-1],~30 nM and 32 nM,~30 nM and 24 nM,~30 nM and 31 nM,1000 nM,7.3 degrees,–,5.7 degrees,–,approximately 30 fold,61.9±0.2 °C,59.9±0.2 °C,71 nM,31 nM
